The nature of data set [1]: Plasma protein binding by equilibrium dialysis. Particulars: rat, 18 hours at 37° C., plasma vs isotonic phosphate buffer pH 7.4, read-out: % free in plasma. The class given is in vitro ADME. The protocol:
The plasma protein binding of compounds was measured using the equilibrium dialysis technique (W. Lindner et al, J. Chromatography, 1996, 677, 1-28). Compound was dialysed at a concentration of 20 μM for 18 hours at 37° C. with plasma and isotonic phosphate buffer pH 7.4 (1 ml of each in the dialysis cell). A Spectrum® 20-cell equilibrium dialyser was used together with Teflon, semi-micro dialysis cells and Spectra/Por®2 membrane discs with a molecular weight cut off 12-14000 Dalton, 47 mm (supplied by PerBio Science UK Ltd, Tattenhall, Cheshire). Plasma and buffer samples are removed following dialysis and analysed using HPLCUV/MS (high performance liquid chromatography with UV and mass spec detection) to give the % free level in plasma.
Background: Equilibrium dialysis compares concentrations on both sides of a semipermeable membrane.

Data set [2] in a line: Plasma levels following oral administration to rats. The class given is in vivo. Particulars: rat, normalised dose of 1 mg of compound per kilogram of rat body weight. The protocol:
Planetary Milled compounds [15 mins, 500 rpm, 5 Zirconium Balls, in a Puluerisette 7 Mill (Glen Creston Ltd, Stanmore, Middlesex, UK)] were suspended in 0.5% HPMC Tween and dosed to High Fat Fed (Research Diets, D12451, ad lib feeding 14 days) Female Alderley Park Zucker or Alderley Park Wistar rats at rate of 5 mls/kg, at doses between 0.3 and 10 mg/kg by oral gavage.
Samples of plasma were obtained either by conscious blood sampling or terminal blood sampling as follows:
Conscious blood sampling (for compound level or blood chemistry)—Intravenous blood samples were taken from tail vein using 600 μl Starstedt Multivette (EDTA) and 22 G needle at the required time point. […]
The reconstituted samples were then analysed using high performance liquid chromatography with tandem mass spectrometry detection (HPLC-MS-MS)”. […]
The concentration of test samples was determined from the ratio of the peak height of the test sample to the peak height of the internal standard. The concentration of the test sample was calculated with reference to a standard curve relating the ratio to the concentration prepared by using known concentrations of test sample added to samples of rat plasma using (3-isopropoxy-5-benzyoxy-benzoyl)amino pyridine 3-carboxylic acid as an internal standard, treated as described above.

Data set [3] can be described thus: Estimation of plasma half-life. The class given is in vivo. Particulars: rat, typically determined following intravenous administration, read-out: t½ (half life in plasma) (converted). From the text:
The plasma half-life is the time taken for the concentration of compound in the plasma to decline to half of its original value. This is typically determined following intravenous administration of the test compound, followed by measurement of the compound concentrations in plasma samples as described above. The plasma half-life is estimated from a semilogarithmic plot, plotting the log of the plasma concentration (lnCp) against sample time (t, linear). The apparent first-order elimination rate constant, k, is equal to the slope of the line, and the elimination half-life (t½) is […] (Gibaldi, M and Perrier, D, 1975 Pharmacokinetics, Marcel Dekker, New York): […]

The target in the next data set is T1, glucokinase (GLK) (Homo sapiens, UniProt P35557).
T1 sequence (P35557 1-466 isoform P35557-2): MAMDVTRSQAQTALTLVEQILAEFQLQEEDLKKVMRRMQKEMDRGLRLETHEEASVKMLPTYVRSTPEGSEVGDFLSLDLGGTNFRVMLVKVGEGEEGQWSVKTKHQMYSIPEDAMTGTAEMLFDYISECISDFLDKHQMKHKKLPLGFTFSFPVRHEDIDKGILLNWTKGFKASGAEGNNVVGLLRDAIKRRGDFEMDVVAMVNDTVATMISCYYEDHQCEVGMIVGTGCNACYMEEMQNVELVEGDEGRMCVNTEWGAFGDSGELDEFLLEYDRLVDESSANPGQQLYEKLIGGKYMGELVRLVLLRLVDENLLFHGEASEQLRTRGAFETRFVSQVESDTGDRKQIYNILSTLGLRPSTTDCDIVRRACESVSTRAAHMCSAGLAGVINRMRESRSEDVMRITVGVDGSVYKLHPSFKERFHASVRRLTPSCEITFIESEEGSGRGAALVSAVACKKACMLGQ
As to the kind of experiment: biochemical.

For the compound `COC[C@H](C)Oc1cc(Oc2ccc3c(c2)OCO3)cc(C(=O)Nc2ccc(C(=O)O)cn2)c1` [Example 2, 6-{[(3-(1,3-benzodioxol-5-yloxy)-5-{[(1S)-1-methyl-2-(methyloxy)ethyl]oxy}phenyl)carbonyl]amino}pyridine-3-carboxylic acid], the fraction unbound at 18 hours, 20 μM in data set [1] is 0.0026. For the same compound, the “Peak Blood levels (including both bound and free)” value in data set [2] stood at 2.7 µM. For the same compound, in data set [3], the half-life was 6.4 h. At glucokinase (GLK), this compound registered an EC50 of 60 nM.

For orientation: half-life means how long it takes for the measured level to halve. For orientation: EC50 means the concentration needed to bring the measured effect to its halfway point. High values mean a need for much substance, low ones an effect from little substance.

The values above are taken from patent US20090018157A1, “Chemical compounds” (priority 2003, published 2009).
